Results taken from ChEMBL document CHEMBL1201862, “PubChem BioAssay data set” (2004).
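Assay format: 96-well plates, 48-hour exposure. GI50 = concentration required for 50% inhibition of growth.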 The source made the active and inactive calls. No stated cut-off is given here; in the data, active = GI50 up to about 1.1 µM and inactive = higher.

Columns and labels:
Assay in all cases: growth of human tumour cells (NCI), 48 h
[1] = tested on: 786-0
[2] = tested on: A498
[3] = tested on: A549
[4] = tested on: ACHN
[5] = tested on: BT-549
[6] = tested on: CAKI-1
[7] = tested on: CCRF-CEM
[8] = tested on: COLO 205
[9] = tested on: DU-145
[10] = tested on: HCC 2998
[11] = tested on: HCT-116
[12] = tested on: HCT-15
[13] = tested on: HL-60
[14] = tested on: HOP-92
[15] = tested on: HT-29
[16] = tested on: IGROV-1
[17] = tested on: K562
[18] = tested on: KM12
[19] = tested on: M14
[20] = tested on: MCF7
[21] = tested on: MDA-MB-231
[22] = tested on: MDA-MB-435
[23] = tested on: MDA-N
[24] = tested on: MOLT-4
[25] = tested on: Malme-3M
[26] = tested on: NCI-H226
[27] = tested on: NCI-H23
[28] = tested on: NCI-H460
[29] = tested on: NCI-H522
[30] = tested on: NCI/ADR-RES
[31] = tested on: OVCAR-3
[32] = tested on: OVCAR-4
[33] = tested on: OVCAR-5
[34] = tested on: OVCAR-8
[35] = tested on: PC-3
[36] = tested on: RPMI-8226
[37] = tested on: RXF 393
[38] = tested on: SF-268
[39] = tested on: SF-295
[40] = tested on: SF-539
[41] = tested on: SK-MEL-28
[42] = tested on: SK-MEL-2
[43] = tested on: SK-MEL-5
[44] = tested on: SN12C
[45] = tested on: SNB-19
[46] = tested on: SNB-75
[47] = tested on: SR
[48] = tested on: SW-620
[49] = tested on: T47D
[50] = tested on: TK-10
[51] = tested on: U-251
[52] = tested on: UACC-257
[53] = tested on: UACC-62
[54] = tested on: UO-31
[55] = tested on: EKVX
[56] = tested on: Hs-578T
[57] = tested on: SK-OV-3
[58] = tested on: HOP-62
[59] = tested on: LOX IMVI

## O=S(=O)(c1ccccc1)N1CCCC(c2ccccc2)CC1 (stereo not given)
[1]
  GI50: 41.9 µM (inactive)
[2]
  GI50: 49 µM (inactive)
[3]
  GI50: 27.2 µM (inactive)
[4]
  GI50: 29.2 µM (inactive)
[5]
  GI50: 58.3 µM (inactive)
[6]
  GI50: > 100 µM (inactive)
[7]
  GI50: 33.8 µM (inactive)
[8]
  GI50: 42 µM (inactive)
[9]
  GI50: > 100 µM (inactive)
[10]
  GI50: 23.9 µM (inactive)
[11]
  GI50: 38.3 µM (inactive)
[12]
  GI50: 46.5 µM
[13]
  GI50: 9.75 µM (inactive)
[14]
  GI50: > 100 µM (inactive)
[15]
  GI50: 15.1 µM (inactive)
[16]
  GI50: > 100 µM (inactive)
[17]
  GI50: 19.4 µM (inactive)
[18]
  GI50: 41 µM (inactive)
[19]
  GI50: > 100 µM (inactive)
[20]
  GI50: 24 µM (inactive)
[21]
  GI50: 30.4 µM (inactive)
[22]
  GI50: 82 µM (inactive)
[23]
  GI50: 64.6 µM (inactive)
[24]
  GI50: 15.2 µM (inactive)
[25]
  GI50: 30.8 µM (inactive)
[26]
  GI50: 52.7 µM (inactive)
[27]
  GI50: 27.5 µM (inactive)
[28]
  GI50: 31.2 µM (inactive)
[29]
  GI50: 35.4 µM (inactive)
[30]
  GI50: 38 µM (inactive)
[31]
  GI50: 53.2 µM (inactive)
[32]
  GI50: 79.1 µM (inactive)
[33]
  GI50: > 100 µM (inactive)
[34]
  GI50: 37.2 µM (inactive)
[35]
  GI50: 30.6 µM (inactive)
[36]
  GI50: 16.4 µM (inactive)
[37]
  GI50: 41.5 µM (inactive)
[38]
  GI50: 27.8 µM (inactive)
[39]
  GI50: 43.7 µM (inactive)
[40]
  GI50: > 100 µM (inactive)
[41]
  GI50: > 100 µM (inactive)
[42]
  GI50: 45.9 µM (inactive)
[43]
  GI50: 14.6 µM (inactive)
[44]
  GI50: 46 µM (inactive)
[45]
  GI50: 93.8 µM (inactive)
[46]
  GI50: 30.8 µM (inactive)
[47]
  GI50: 16.9 µM (inactive)
[48]
  GI50: 33 µM (inactive)
[49]
  GI50: 44.1 µM (inactive)
[50]
  GI50: 51.9 µM (inactive)
[51]
  GI50: 45.5 µM (inactive)
[52]
  GI50: 38.9 µM (inactive)
[53]
  GI50: > 100 µM (inactive)
[54]
  GI50: 55 µM (inactive)

## COc1cc(/C=C/C(=O)c2ccc(O)c(OC)c2)ccc1O
[8]
  GI50: 20.1 µM (inactive)
[55]
  GI50: 12.3 µM (inactive)
[14]
  GI50: 27.2 µM (inactive)
[56]
  GI50: 17.5 µM (inactive)
[21]
  GI50: 29.1 µM (inactive)
[25]
  GI50: 22.3 µM (inactive)
[26]
  GI50: 24.5 µM (inactive)
[29]
  GI50: 14.5 µM (inactive)
[31]
  GI50: 18.7 µM (inactive)
[32]
  GI50: 24.3 µM (inactive)
[33]
  GI50: 24.8 µM (inactive)
[39]
  GI50: 20.6 µM (inactive)
[41]
  GI50: 17.6 µM (inactive)
[42]
  GI50: 20.3 µM (inactive)
[57]
  GI50: 13.4 µM (inactive)
[46]
  GI50: 24.8 µM (inactive)
[49]
  GI50: 22.9 µM (inactive)
[50]
  GI50: 46.8 µM (inactive)
[52]
  GI50: 22.5 µM (inactive)

## Cc1c(O)c(OC2OC(CO)C(O)C(O)C2O)cc2c1CC[C@@H]1C2(C)C(=O)C[C@]2(C)[C@@H]([C@@](C)(O)C(O)CCC(C)(C)O)[C@H](O)C[C@@]12C (stereo not given in full)
[1]
  GI50: > 100 µM (inactive)
[2]
  GI50: > 100 µM (inactive)
[3]
  GI50: > 100 µM (inactive)
[4]
  GI50: > 100 µM (inactive)
[5]
  GI50: > 100 µM (inactive)
[6]
  GI50: > 100 µM (inactive)
[7]
  GI50: > 100 µM (inactive)
[8]
  GI50: > 100 µM (inactive)
[9]
  GI50: > 100 µM (inactive)
[55]
  GI50: > 100 µM (inactive)
[10]
  GI50: > 100 µM (inactive)
[11]
  GI50: > 100 µM (inactive)
[12]
  GI50: > 100 µM
[13]
  GI50: > 100 µM (inactive)
[58]
  GI50: > 100 µM (inactive)
[14]
  GI50: > 100 µM (inactive)
[15]
  GI50: > 100 µM (inactive)
[16]
  GI50: > 100 µM (inactive)
[17]
  GI50: > 100 µM (inactive)
[18]
  GI50: > 100 µM (inactive)
[59]
  GI50: > 100 µM (inactive)
[19]
  GI50: > 100 µM (inactive)
[20]
  GI50: > 100 µM (inactive)
[21]
  GI50: > 100 µM (inactive)
[22]
  GI50: > 100 µM (inactive)
[23]
  GI50: > 100 µM (inactive)
[24]
  GI50: > 100 µM (inactive)
[25]
  GI50: > 100 µM (inactive)
[26]
  GI50: > 100 µM (inactive)
[27]
  GI50: > 100 µM (inactive)
[28]
  GI50: > 100 µM (inactive)
[29]
  GI50: > 100 µM (inactive)
[30]
  GI50: > 100 µM (inactive)
[31]
  GI50: > 100 µM (inactive)
[32]
  GI50: > 100 µM (inactive)
[33]
  GI50: > 100 µM (inactive)
[34]
  GI50: > 100 µM (inactive)
[35]
  GI50: > 100 µM (inactive)
[37]
  GI50: > 100 µM (inactive)
[38]
  GI50: > 100 µM (inactive)
[39]
  GI50: > 100 µM (inactive)
[40]
  GI50: > 100 µM (inactive)
[41]
  GI50: > 100 µM (inactive)
[42]
  GI50: > 100 µM (inactive)
[43]
  GI50: > 100 µM (inactive)
[57]
  GI50: > 100 µM (inactive)
[44]
  GI50: > 100 µM (inactive)
[45]
  GI50: > 100 µM (inactive)
[46]
  GI50: > 100 µM (inactive)
[47]
  GI50: > 100 µM (inactive)
[48]
  GI50: > 100 µM (inactive)
[49]
  GI50: > 100 µM (inactive)
[50]
  GI50: > 100 µM (inactive)
[51]
  GI50: > 100 µM (inactive)
[52]
  GI50: > 100 µM (inactive)
[53]
  GI50: > 100 µM (inactive)
[54]
  GI50: > 100 µM (inactive)
